Assay results as given in patent US20110151485A1, “METHOD FOR SCREENING FOR ANTIANGIOGENIC AGENT, AND METHOD FOR SCREENING FOR ANTIANGIOGENIC SIGNAL GENE” (National University Corporation Tokyo Medical and Dental …, priority 2008, published 2011).

Tests used:
Format in all cases: cell-based
[1] = test system: PKR; test: western blotting with phospho-specific anti-PKR antibody, aorta endothelial cells (rAEC); settings: rat aorta derived primary endothelial cells, 4 or 8 hours
Description: Similarly, […] aorta endothelial cells (rAEC) were treated respectively with salubrinal (20 μM), rifampicin (40 μg/ml), or endostatin (1.0×10^−9 M); PKR inhibitor A (2-aminopurine, 10 mM) followed by endostatin (1.0×10^−9 M); PKR inhibitor B (8-(imidazole-4-ylmethylene)-6H-azolidino [5,4-g]benzodiazole-7-one, 0.3 μM) followed by rifampicin (40 μg/ml); and PKR inhibitor B (same as above, 0.3 μM) followed by endostatin (1.0×10^−9 M); and maintained at 37° C. for 4 or 8 hours. Total cell extracts from respective samples were subjected to western blotting analysis using phospho-specific anti-PKR antibody to determine the extent of PKR phosphorylation.

[2] = test system: PKR; test: fluorescent antibody staining with phospho-specific anti-PKR antibody, human umbilical vein endothelial cells
Description: Human umbilical endothelial cells cultured in HamF12K were treated with 40 μg/ml of rifampicin or 1.0×10^−9 M of endostatin, and maintained at 37° C. for 30 minutes. Cells were then stained using phospho-specific anti-PKR antibody as the primary antibody, and the presence of phosphorylated PKR was examined in the cells.
Similar experiments were also performed in human umbilical vein endothelial cells pre-treated with structural analog of PKR inhibitor (PKR negative) and then treated with 40 μg/ml rifampicin, as well as in human umbilical vein endothelial cells pre-treated with PKR inhibitor B (8-(imidazole-4-ylmethylene)-6H-azolidino [5,4-g]benzodiazole-7-one, 0.3 μM) and then treated with 40 μg/ml rifampicin or 1.0×10^−9 M endostatin, respectively.

[3] = test system: Flt gene; test: real-time quantitative RT-PCR, Flt gene, human umbilical vein endothelial cells; settings: 4 to 8 hours
Description: (§2) Human umbilical vein endothelial cells cultured in HamF12K medium were treated with 40 μg/ml rifampicin or 1.0×10^−8 M endostatin, and maintained at 37° C. for 4 to 8 hours. […] After establishing the quantification condition, the amount of mRNA for these genes were quantified. […] Human umbilical vein endothelial cells cultured in HamF12K medium were treated with 20 μM salubrinal, and maintained at 37° C. for 4 to 8 hours. Subsequently, total cell extracts were subjected to real-time quantitative RT-PCR using TaqMan probe for ID1 gene, ID3 gene, integrinαv gene, Flt gene and Ephrin A1 gene, respectively. After establishing the quantification condition, the amount of mRNA for these genes were quantified.

[4] = test system: integrinαv gene; test: real-time quantitative RT-PCR, integrinαv gene, human umbilical vein endothelial cells; settings: 4 to 8 hours
Description: as §2

[5] = test system: Ephrin A1 gene; test: real-time quantitative RT-PCR, Ephrin A1 gene, human umbilical vein endothelial cells; settings: 4 to 8 hours
Description: as §2

[6] = test system: ID1 gene; test: real-time quantitative RT-PCR, ID1 gene, human umbilical vein endothelial cells; settings: 4 to 8 hours
Description: as §2

[7] = test system: ID3 gene; test: real-time quantitative RT-PCR, ID3 gene, human umbilical vein endothelial cells; settings: 4 to 8 hours
Description: as §2

[8] = test system: PKR; test: western blotting with phospho-specific anti-PKR antibody, human umbilical vein endothelial cells (hUVEC); settings: 40 μg/ml rifampicin or 1.0×10^−9 M endostatin, 10 to 240 minutes
Description: (§1) Human retina vessel endothelial cells (hREC) or human umbilical vein endothelial cells (hUVEC) cultured in HamF12K medium supplemented with 10% bovine fetal serum and growth factors were treated with either 40 μg/ml rifampicin or 1.0×10^−9 M endostatin, and maintained at 37° C. for 10 to 240 minutes. Total cell extracts from the maintained cells were then subjected to western blotting using phospho-specific anti-PKR antibody to examine the time course of PKR phosphorylation.

[9] = test system: PKR; test: western blotting with phospho-specific anti-PKR antibody, human retina vessel endothelial cells (hREC); settings: 40 μg/ml rifampicin or 1.0×10^−9 M endostatin, 10 to 240 minutes
Description: as §1

[10] = test system: PKR mRNA; test: real-time quantitative RT-PCR, PKR mRNA, human umbilical vein endothelial cells; settings: 40 μg/ml rifampicin or 1.0×10^−8 M endostatin, 4 to 8 hours
Description: Human umbilical vein endothelial cells cultured in HamF12K medium were treated with 40 μg/ml rifampicin or 1.0×10^−8 M endostatin, and maintained at 37° C. for 4 to 8 hours. Subsequently, total cell extracts were subjected to real-time quantitative RT-PCR using TaqMan probe for PKR mRNA, and the amount of PKR mRNA was quantified. Similar processes were repeated for human umbilical vein endothelial cell samples that were transfected with PKR siRNA prior to rifampicin or endostatin treatment.

[11] = hUVEC transfected with PKR siRNA prior to 40 μg/ml rifampicin or 1.0×10^−8 M endostatin
[12] = hUVEC, 40 μg/ml rifampicin or 1.0×10^−8 M endostatin

**Q.** With O=C1Nc2ccc3ncsc3c2C1=Cc1cnc[nH]1 [PKR inhibitor B, reference compound] as the molecule, how does the “effect of PKR inhibitor pre-treatment on rifampicin or endostatin induced PKR phosphorylation” value ([1]; inhibitor 0.3 μM) read?
**A.** did not induce PKR phosphorylation

**Q.** What about the “effect of PKR inhibitor pre-treatment on PKR phosphorylation after rifampicin or endostatin treatment (fluorescent antibody)” value ([2]; inhibitor 0.3 μM) of the same molecule?
**A.** did not occur

**Q.** Which results are given for O=C(/C=C/c1ccccc1)NC(NC(=S)Nc1cccc2cccnc12)C(Cl)(Cl)Cl (stereo not drawn) [salubrinal, reference compound]?
**A.** expression level of mRNA for Flt gene ([3]; hUVEC, 20 μM salubrinal): decrease; expression level of mRNA for integrinαv gene ([4]; hUVEC, 20 μM salubrinal): decrease; expression level of mRNA for Ephrin A1 gene ([5]; hUVEC, 20 μM salubrinal): decrease; expression level of mRNA for ID1 gene ([6]; hUVEC, 20 μM salubrinal): decrease; expression level of mRNA for ID3 gene ([7]; hUVEC, 20 μM salubrinal): decrease

**Q.** endostatin was tested. Which “decrease of expression of Flt gene in PKR siRNA treated samples” value [3, 11] did it give?
**A.** did not occur

**Q.** And the “expression level of Flt gene” value [3, 12]?
**A.** decreased

**Q.** And the “phosphorylation of PKR” value [8]?
**A.** enhanced

**Q.** What about the “phosphorylation of PKR in cells pre-treated with specific PKR inhibitor” value ([1]; PKR inhibitor B 0.3 μM followed by rifampicin 40 μg/ml or endostatin 1.0×10^−9 M) of the same molecule?
**A.** did not induce PKR phosphorylation

**Q.** And the “phosphorylation of PKR” value ([1]; rifampicin 40 μg/ml or endostatin 1.0×10^−9 M)?
**A.** induced phosphorylation of PKR

**Q.** And the “decrease of expression of integrinαv gene in PKR siRNA treated samples” value [4, 11]?
**A.** did not occur

**Q.** And the “expression level of integrinαv gene” value [4, 12]?
**A.** decreased

**Q.** And the “phosphorylation of PKR” value [9]?
**A.** enhanced

**Q.** What about the “decrease of expression of Ephrin A1 gene in PKR siRNA treated samples” value [5, 11] of the same molecule?
**A.** did not occur

**Q.** What about the “expression level of Ephrin A1 gene” value [5, 12] of the same molecule?
**A.** decreased

**Q.** And the “decrease of expression of ID1 gene in PKR siRNA treated samples” value [6, 11]?
**A.** did not occur

**Q.** And the “expression level of ID1 gene” value [6, 12]?
**A.** decreased

**Q.** What about the “PKR expression (PKR mRNA)” value [10] of the same molecule?
**A.** increased

**Q.** What about the “decrease of expression of ID3 gene in PKR siRNA treated samples” value [7, 11] of the same molecule?
**A.** did not occur

**Q.** And the “expression level of ID3 gene” value [7, 12]?
**A.** decreased

**Q.** And the “PKR phosphorylation in the cell (fluorescent antibody)” value ([2]; 40 μg/ml rifampicin or 1.0×10^−9 M endostatin, 30 minutes)?
**A.** induced enhancement of PKR phosphorylation

**Q.** And the “PKR phosphorylation in cells pre-treated with specific PKR inhibitor (fluorescent antibody)” value ([2]; PKR inhibitor B 0.3 μM, then 40 μg/ml rifampicin or 1.0×10^−9 M endostatin)?
**A.** did not occur
